Source: patent publication US20070191460A1, “Use of Benzo-Heteroaryl Sulfamide Derivatives for the Treatment of Disease Modification / Epileptogenesis” (priority 2006, published 2007)

Test system: amygdala kindled rat model of partial epilepsy
Test: In Vivo, Amygdala Kindling Assay
Design: species or system Sprague-Dawley rats
Description: The development of amygdala kindling is an established model of epileptogenesis. (Amano K, Hamada K, Yagi K, Seino M. Antiepileptic effects of topiramate on amygdaloid kindling in rats. Epilepsy Res. 1998 July;31(2):123-8; Barton M E, White H S. The effect of CGX-1007 and CI-1041, novel NMDA receptor antagonists, on kindling acquisition and expression. Epilepsy Res. 2004 March;59(1):1-12; Loscher W, Honack D, Rundfeldt C. Antiepileptogenic effects of the novel anticonvulsant levetiracetam (ucb L059)in the kindling model of temporal lobe epilepsy. J Pharmacol Exp Ther. 1998 February;284(2):474-9; McNamara J O. Analyses of the molecular basis of kindling development. Psychiatry Clin Neurosci. 1995 June; 49(3):S175-8. Review.; Morimoto K, Katayama K, Inoue K, Sato K. Effects of competitive and noncompetitive NMDA receptor antagonists on kindling and LTP. Pharmacol Biochem Behav. 1991 December;40(4):893-9; Racine, R. J. 1972. Modification of seizure activity by electrical stimulation. II. Motor seizure. Electroencephalogr. Clin. Neurophysiol. 32, 281-294). The kindled rat model of partial epilepsy is an accepted model of epileptogenesis (McNamara J O. Analyses of the molecular basis of kindling development. Psychiatry Clin Neurosci. 1995 June;49(3):S175-8. Review.).
Briefly, the assay procedure was as follows. Adult male, Sprague-Dawley rats weighing between 250-300 g were obtained from Charles River, Wilmington, Mass. were used for experimental procedures. All animals were housed on a 12:12 light dark cycle and permitted free access to both food (Prolab RMH 3000) and water except when removed from the home cage for experimental procedures. Animals were cared for in a matter consistent with the recommendations detailed in the National Research Council Publication, “Guide for the Care and Use of Laboratory Animals” in a temperature controlled, pesticide-free facility. Kindling stimulations were routinely performed between 9 AM-2 PM to avoid any circadian variations.
Compound #1 was triturated in a small volume of 0.5% methylcellulose, sonicated for 10 min, and brought to a final volume with 0.5% methylcellulose. The compound was administered systemically (i.p.) in a volume of 0.04 ml/10 g body weight and all tests were conducted at the pre-determined time of peak effect of 0.5 hours after i.p. administration.
The ability of Compound #1 to block the expression of amygdala kindled seizures was determined. For this study, rats were anaesthetized with a ketamine (120 mg/kg, i.p.) and xylazine (12 mg/kg, i.p.) cocktail. […]
Amygdala kindling was then performed according to the following protocol (Barton and White, 2004). […] The behavioral seizure score and AD duration was recorded for rats in each treatment group. […]

NS(=O)(=O)NCc1csc2ccccc12 [Compound #1, N-(benzo[b]thien-3-ylmethyl)-sulfamide]
behavioral seizure score (Racine scale) at the conclusion of the drug- and stimulus-free period (100 mg/kg i.p. 30 min before daily amygdala stimulation (200 μA, 2 s) for up to 13 days, re-challenged without drug after one-week stimulus- and drug-free period, n=10 rats, vehicle=4.6±0.24): 0.1±0.11
after-discharge (AD) duration over the kindling acquisition phase, versus vehicle (100 mg/kg i.p., daily stimulation, days 1-13, progressive increase in both groups): No statistical difference
acquisition of the full generalized kindled seizure (100 mg/kg i.p., rats, kindling acquisition): prevented the acquisition of the full generalized kindled seizure
delay of the acquisition of kindling (stimulated in the absence of drug after the drug-free week, seizure score rose parallel to vehicle-treated rats): delayed the acquisition of kindling by several days
